Test results reported in US9758561B2 (priority 2014, dated 2017).
≈ marks a conversion by molar mass, not a printed value. Read-outs that look alike come from different tables or passages of the source.

Tests used:
[1] = Solubility testing in buffer (HPLC-UV); type: physicochemical
Method: Prior to the testing of solubility and stability of a peptide batch, its purity (HPLC-UV) was determined. […] Therefore, solutions from solid samples were prepared in different buffer systems with a concentration of 10 mg/mL compound based on the previously determined % purity. HPLC-UV was performed after 2 h of gentle agitation from the supernatant, which was obtained by 20 min of centrifugation at 4500 rpm. […] This analysis also served as starting point (t0) for the stability testing.

[2] = test system: female diet-induced obese (DIO) C57BL/6 mice; test: Chronic effect on body weight and body fat in female DIO C57BL/6 mice; type: in vivo; settings: 50 μg/kg bid s.c., 4 weeks; for Body fat change: NMR; for Body fat change / Overall weight change: mean ± SEM
Method: (§1) C57BL/6 Harlan mice are housed in groups in a specific pathogen-free barrier facility on a 12 h light/dark cycle with free access to water and standard or high-fat diet. After prefeeding on high-fat diet, mice are stratified to treatment groups (n=8), so that each group has similar mean body weight. An age-matched group with ad-libitum access to standard chow is included as standard control group. Before the experiment, mice are subcutaneously (s.c.) injected with vehicle solution and weighed for 3 days to acclimate them to the procedures.
Body weight is recorded daily. Two days before start of treatment and on day 26, total fat mass is measured by nuclear magnetic resonance (NMR).
(§2) Statistical analyses are performed with Everstat 6.0 by repeated measures two-way ANOVA and Dunnetts post-hoc analyses (glucose profile) and 1-way-ANOVA, followed by Dunnetts post-hoc test (body weight, body fat). Differences versus vehicle-treated DIO control mice are considered statistically significant at the p<0.05 level.
Female obese C57BL/6 mice were treated for 4 weeks twice daily subcutaneously with 50 μg/kg SEQ ID NO: 6, 50 μg/kg SEQ ID NO: 7 or vehicle. Body weight was recorded daily, and body fat content was determined before the start and after 4 weeks of treatment. […] These changes resulted from a decrease in body fat, as shown by the absolute changes in body fat content (Table 10, FIG. 3).
Female obese C57BL/6 mice were treated for 4 weeks twice daily subcutaneously with 50 μg/kg SEQ ID NO: 9 or vehicle. Body weight was recorded daily, and body fat content was determined before the start and after 4 weeks of treatment.

[3] = target: T1, human GIP receptor (Homo sapiens, UniProt P48546); test: cAMP response of HEK-293 cells stably expressing human GIP receptor (HTRF); type: cell-based; settings: Table 6; read-out: EC50 hGIP-R
T1 construct: expressed in transfected cells; host or cells: HEK-293
T1 sequence (P48546 22-466): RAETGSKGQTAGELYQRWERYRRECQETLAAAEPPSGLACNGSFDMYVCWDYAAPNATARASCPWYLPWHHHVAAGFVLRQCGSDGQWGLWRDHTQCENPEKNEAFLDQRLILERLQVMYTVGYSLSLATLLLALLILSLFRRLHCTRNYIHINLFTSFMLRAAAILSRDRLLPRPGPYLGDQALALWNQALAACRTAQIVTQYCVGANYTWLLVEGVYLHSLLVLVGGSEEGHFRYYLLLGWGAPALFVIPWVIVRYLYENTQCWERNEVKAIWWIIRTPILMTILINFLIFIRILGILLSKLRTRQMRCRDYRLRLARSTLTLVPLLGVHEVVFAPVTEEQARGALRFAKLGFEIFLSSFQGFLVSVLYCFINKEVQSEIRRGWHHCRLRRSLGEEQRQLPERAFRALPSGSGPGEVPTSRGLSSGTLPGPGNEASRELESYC
Method: (§3) For preparation, cells were split into T175 culture flasks and grown overnight to near confluency in medium (DMEM/10% FBS). Medium was then removed and cells washed with PBS lacking calcium and magnesium, followed by proteinase treatment with accutase (Sigma-Aldrich cat. no. A6964). Detached cells were washed and resuspended in assay buffer (1×HBSS; 20 mM HEPES, 0.1% BSA, 2 mM IBMX) and cellular density determined. They were then diluted to 400000 cells/ml and 25 μl-aliquots dispensed into the wells of 96-well plates. For measurement, 25 μl of test compound in assay buffer was added to the wells, followed by incubation for 30 minutes at room temperature. […] Potencies of peptidic compounds at the GLP-1, glucagon and GIP receptors were determined by exposing cells expressing human glucagon receptor (hGlucagon R), human GIP receptor (hGIP-R) or human GLP-1 receptor (hGLP-1R) to the listed compounds at increasing concentrations and measuring the formed cAMP as described in Methods.

[4] = target: T2, human GLP-1 receptor (Homo sapiens, UniProt P43220); test: cAMP response of HEK-293 cells stably expressing human GLP-1 receptor (HTRF); type: cell-based; settings: Table 6; read-out: EC50 hGLP-1R
T2 construct: expressed in transfected cells; host or cells: HEK-293
T2 sequence (P43220 24-463): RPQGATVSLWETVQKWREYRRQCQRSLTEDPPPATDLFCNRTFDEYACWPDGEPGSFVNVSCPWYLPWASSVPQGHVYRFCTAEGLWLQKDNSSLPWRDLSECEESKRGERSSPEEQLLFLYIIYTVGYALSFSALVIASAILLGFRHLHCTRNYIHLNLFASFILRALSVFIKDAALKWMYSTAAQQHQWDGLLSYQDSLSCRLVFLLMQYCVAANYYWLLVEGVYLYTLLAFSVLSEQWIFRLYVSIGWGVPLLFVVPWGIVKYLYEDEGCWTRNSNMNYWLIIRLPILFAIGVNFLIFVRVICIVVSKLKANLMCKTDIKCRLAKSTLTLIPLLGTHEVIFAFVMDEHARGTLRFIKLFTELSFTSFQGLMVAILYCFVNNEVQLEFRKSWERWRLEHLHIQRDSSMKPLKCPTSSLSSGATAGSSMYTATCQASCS
In short: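 HEK-293 cells stably expressing the receptor were taken up in HBSS/20 mM HEPES/0.1% BSA with 2 mM IBMX at 400000 cells/ml. They were exposed to increasing concentrations of peptide for 30 minutes at room temperature, and formed cAMP was measured by HTRF.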

[5] = Stability testing in solution, 7 days at 40° C. (HPLC-UV); type: physicochemical; settings: for Stability pH 4.5: pH 4.5, 7 days at 40° C. in solution; for Stability pH 7.4: pH 7.4, 7 days at 40° C. in solution
Method: After that time course, the sample was centrifuged for 20 min at 4500 rpm and 0.2 μL of the supernatant were analysed with HPLC-UV.
For determination of the amount of the remaining peptide, the peak areas of the target compound at t0 and t7 were compared, resulting in “% remaining peptide”, following the equation % remaining peptide=[(peak area peptide t7)×100]/peak area peptide t0.
The stability is expressed as “% remaining peptide”.

[6] = target: T3, human glucagon receptor (Homo sapiens, UniProt P47871); test: cAMP response of HEK-293 cells stably expressing human glucagon receptor (HTRF); type: cell-based; settings: Table 6; read-out: EC50 hGlucagon-R
T3 construct: expressed in transfected cells; host or cells: HEK-293
T3 sequence (P47871 26-477): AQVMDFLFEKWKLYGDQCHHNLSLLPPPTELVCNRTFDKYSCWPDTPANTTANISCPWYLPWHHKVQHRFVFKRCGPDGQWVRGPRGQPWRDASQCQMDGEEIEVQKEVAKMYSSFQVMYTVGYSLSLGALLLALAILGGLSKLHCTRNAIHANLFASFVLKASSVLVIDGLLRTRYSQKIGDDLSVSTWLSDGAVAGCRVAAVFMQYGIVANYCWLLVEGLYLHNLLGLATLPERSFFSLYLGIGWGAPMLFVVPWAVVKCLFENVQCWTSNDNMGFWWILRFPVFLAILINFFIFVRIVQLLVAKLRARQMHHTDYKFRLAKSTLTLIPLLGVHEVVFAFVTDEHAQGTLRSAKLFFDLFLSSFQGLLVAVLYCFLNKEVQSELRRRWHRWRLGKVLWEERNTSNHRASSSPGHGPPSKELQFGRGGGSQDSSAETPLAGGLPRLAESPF
Method: as §3

[7] = test system: female diet-induced obese (DIO) C57BL/6 mice; test: Acute effect on blood glucose in fed female DIO C57BL/6 mice; type: in vivo; settings: 50 μg/kg s.c., profile over 24 h
Method: as §1
The volume of administration is 5 mL/kg. The animals have access to water and their corresponding diet during the experiment. Blood glucose levels are measured at t=0 h, t=1 h, t=2 h, t=3 h, t=4 h, t=6 h and t=24 h (method: Accu-Check glucometer). Blood sampling is performed by tail incision without anaesthesia.
as §2, with “level. […]” for “level.”

[8] = Pharmacokinetic testing in mice, 1 mg/kg s.c. (LC/MS); type: in vivo; settings: mouse, plasma, sc
Method: Mice were dosed 1 mg/kg subcutaneously (s.c.). The mice were sacrificed and blood samples were collected after 0.25, 0.5, 1, 2, 4, 8, 16 and 24 hours post application. Plasma samples were analyzed after protein precipitation via liquid chromatography mass spectrometry (LC/MS). PK parameters and half-life were calculated using WinonLin Version 5.2.1 (non-compartment model).

[9] = pH 4.5, target concentration 10 mg/ml, read-out: solubility pH 4.5
[10] = pH 7.4, target concentration 10 mg/ml, read-out: solubility pH 7.4

| Structure (SMILES) | solubility at 2 h [1, 9] [µg/mL] | solubility at 2 h [1, 10] [µg/mL] | daily body weight compared to vehicle DIO control mice [2] | Body fat change ([2]; Table 10 (Example 7)) [g] | Overall weight change ([2]; Table 10 (Example 7)) [g] | EC50 [3] [nM] | EC50 [4] [nM] | Stability pH 4.5 [5] [% remaining peptide] | Stability pH 7.4 [5] [% remaining peptide] | EC50 [6] [nM] | Body fat change ([2]; Table 11 (Example 8)) [g] | Overall weight change ([2]; Table 11 (Example 8)) [g] | blood glucose compared to DIO control [7] | Cmax [8] [ng/mL] | half-life [8] [h] |
| --- | --- | --- | --- | --- | --- | --- | --- | --- | --- | --- | --- | --- | --- | --- | --- |
| CCCCCCCCCCCCCCCC(=O)N[C@@H](CCC(=O)N[C@@H](CCC(=O)NCCCC[C@H](NC(=O)[C@H](CCC(N)=O)NC(=O)[C@H](CCCCN)NC(=O)[C@H](CO)NC(=O)[C@H](CC(C)C)NC(=O)[C@H](CC(=O)O)NC(=O)[C@H](CO)NC(=O)[C@@H](NC(=O)[C@H](Cc1ccccc1)NC(=O)[C@@H](NC(=O)CNC(=O)[C@H](Cc1c[nH]cn1)NC(=O)[C@@H](CO)NC(=O)[C@@H](N)Cc1c[nH]cn1)[C@@H](C)O)[C@@H](C)O)C(=O)N[C@@H](CCC(=O)O)C(=O)N[C@@H](CCC(=O)O)C(=O)N[C@@H](CCC(=O)O)C(=O)N[C@@H](C)C(=O)N[C@@H](C)C(=O)N[C@@H](CCCNC(=N)N)C(=O)N[C@@H](CC(C)C)C(=O)N[C@@H](Cc1ccccc1)C(=O)N[C@H](C(=O)N[C@@H](CCC(=O)O)C(=O)N[C@@H](Cc1c[nH]c2ccccc12)C(=O)N[C@@H](CC(C)C)C(=O)NC(C)(C)C(=O)N[C@@H](C)C(=O)NCC(=O)NCC(=O)N1CCC[C@H]1C(=O)N[C@@H](CO)C(=O)N[C@@H](CO)C(=O)NCC(=O)N[C@@H](C)C(=O)N1CCC[C@H]1C(=O)N1CCC[C@H]1C(=O)N1CCC[C@H]1C(=O)N[C@@H](CO)C(N)=O)[C@@H](C)CC)C(=O)O)C(=O)O [SEQ ID NO: 6, H-dSer-H-G-T-F-T-S-D-L-S-K-Q-K(γE-γE-x53)-E-E-E-A-A-R-L-F-I-E-W-L-Aib-A-G-G-P-S-S-G-A-P-P-P-S-NH2] | > 8000 | > 8000 | decrease in daily body weight | -4.64 ± 0.4 | -6.08 ± 0.6 | 1.54 | 0.0026 | 100.0 | 92.0 | 0.0177 |  |  |  |  |  |
| CCCCCCCCCCCCCCCC(=O)N[C@@H](CCC(=O)N[C@@H](CCC(=O)NCCCC[C@H](NC(=O)[C@H](CCC(N)=O)NC(=O)[C@H](CCCCN)NC(=O)[C@H](CO)NC(=O)[C@H](CC(C)C)NC(=O)[C@H](CC(=O)O)NC(=O)[C@H](CO)NC(=O)[C@@H](NC(=O)[C@H](Cc1ccccc1)NC(=O)[C@@H](NC(=O)CNC(=O)[C@H](Cc1c[nH]cn1)NC(=O)[C@@H](CO)NC(=O)[C@@H](N)Cc1c[nH]cn1)[C@@H](C)O)[C@@H](C)O)C(=O)N[C@@H](CC(=O)O)C(=O)N[C@@H](CCC(=O)O)C(=O)N[C@@H](CCC(=O)O)C(=O)N[C@@H](C)C(=O)N[C@@H](C)C(=O)N[C@@H](CCCNC(=N)N)C(=O)N[C@@H](CC(C)C)C(=O)N[C@@H](Cc1ccccc1)C(=O)N[C@H](C(=O)N[C@@H](CCC(=O)O)C(=O)N[C@@H](Cc1c[nH]c2ccccc12)C(=O)N[C@@H](CC(C)C)C(=O)NC(C)(C)C(=O)N[C@@H](C)C(=O)NCC(=O)NCC(=O)N1CCC[C@H]1C(=O)N[C@@H](CO)C(=O)N[C@@H](CO)C(=O)NCC(=O)N[C@@H](C)C(=O)N1CCC[C@H]1C(=O)N1CCC[C@H]1C(=O)N1CCC[C@H]1C(=O)N[C@@H](CO)C(N)=O)[C@@H](C)CC)C(=O)O)C(=O)O [SEQ ID NO: 7, H-dSer-H-G-T-F-T-S-D-L-S-K-Q-K(γE-γE-x53)-D-E-E-A-A-R-L-F-I-E-W-L-Aib-A-G-G-P-S-S-G-A-P-P-P-S-NH2] | 2200 (≈ 479 µM) | > 8000 | decrease in daily body weight | -5.12 ± 0.6 | -7.25 ± 0.7 | 0.908 | 0.0015 | 100.0 | 90.0 | 0.009 |  |  |  |  |  |
| CCCCCCCCCCCCCCCC(=O)N[C@@H](CCC(=O)N[C@@H](CCC(=O)NCCCC[C@H](NC(=O)[C@H](CCC(N)=O)NC(=O)[C@H](CCCCN)NC(=O)[C@H](CO)NC(=O)[C@H](CC(C)C)NC(=O)[C@H](CC(=O)O)NC(=O)[C@H](CO)NC(=O)[C@@H](NC(=O)[C@H](Cc1ccccc1)NC(=O)[C@@H](NC(=O)CNC(=O)[C@H](CCC(N)=O)NC(=O)[C@@H](CO)NC(=O)[C@@H](N)Cc1c[nH]cn1)[C@@H](C)O)[C@@H](C)O)C(=O)N[C@@H](CC(=O)O)C(=O)N[C@@H](CCC(=O)O)C(=O)N[C@@H](CCC(=O)O)C(=O)N[C@@H](C)C(=O)N[C@@H](C)C(=O)N[C@@H](CCCNC(=N)N)C(=O)N[C@@H](CC(C)C)C(=O)N[C@@H](Cc1ccccc1)C(=O)N[C@H](C(=O)N[C@@H](CCC(=O)O)C(=O)N[C@@H](Cc1c[nH]c2ccccc12)C(=O)N[C@@H](CC(C)C)C(=O)NC(C)(C)C(=O)N[C@@H](C)C(=O)NCC(=O)NCC(=O)N1CCC[C@H]1C(=O)N[C@@H](CO)C(=O)N[C@@H](CO)C(=O)NCC(=O)N[C@@H](C)C(=O)N1CCC[C@H]1C(=O)N1CCC[C@H]1C(=O)N1CCC[C@H]1C(=O)N[C@@H](CO)C(N)=O)[C@@H](C)CC)C(=O)O)C(=O)O [SEQ ID NO: 9, H-dSer-Q-G-T-F-T-S-D-L-S-K-Q-K(γE-γE-x53)-D-E-E-A-A-R-L-F-I-E-W-L-Aib-A-G-G-P-S-S-G-A-P-P-P-S-NH2] | 2200 (≈ 480 µM) | > 8000 | decrease in daily body weight |  |  | 3.6 | 0.0018 | 77.0 | 93.0 | 0.0118 | -5.65 ± 0.9 | -6.56 ± 1.0 | decrease in blood glucose | 6560 | 3.8 |
